The text below walks through data of patent publication US20250340561A1, “QUINAZOLINE COMPOUND FOR INDUCING DEGRADATION OF G12D MUTANT KRAS PROTEIN” (Astellas Pharma Inc., priority 2021, published 2025).

Where two headings read alike, the source gives them in different places.

The subject of assay [1] is phosphorylation of ERK (Thr202/Tyr204). Kind of assay: Test Example 2: ERK phosphorylation inhibition action in AsPC-1, Cell ELISA. The assay is classed as cell-based, human. To be noted: AsPC-1 cells, 0% = 1 μM trametinib. On the procedure: Test Example 2: Evaluation of ERK Phosphorylation Inhibition Action on Human G12D Mutant KRAS-Positive Pancreatic Cancer Line AsPC-1
The ERK phosphorylation inhibition action of test compounds was evaluated by measuring phosphorylation of the 202th threonine (Thr202) and the 204th tyrosine (Tyr204) of ERK located downstream of the KRAS signal by Cell ELISA.
AsPC-1 cells were seeded on a 384-well plate (from Greiner bio-one) at 36 μL/well to give 2.0×10^4 cells per well. As for the cell culture conditions, a RPMI 1640 medium containing 10% fetal bovine serum was used in the presence of 5% CO2 at 37° C.
The next day, the test compounds (6 points having final concentrations in the range of 10 μM to 3.0 nM), trametinib (MEK inhibitor) of a final concentration of 1 μM as a positive control and DMSO, which was the solvent for the test compounds, as a negative control were diluted 100-fold with a fresh medium and were added at 4 μL per well. The cells were then cultured for 24 hours. After culturing, a 30% glyoxal solution (40% glyoxal [from Nacalai Tesque] was diluted with PBS) was quickly added at 30 μL per well, and the plate was allowed to stand for 90 minutes at room temperature to thus immobilize the cells. Then, the plate was centrifuged to remove the supernatant (using a centrifugal dehydrator machine, the supernatant was removed by the same method hereinafter), and 0.1% Triton X-100-containing PBS was added at 20 μL per well. After allowing to stand for 10 minutes at room temperature, the supernatant was removed by centrifugation, and the same operation was further repeated. Next, 0.5% SDS-containing PBS was added at 20 μL per well, and after allowing to stand at room temperature for 30 minutes, the supernatant was removed by centrifugation. Subsequently, a blocking solution (Intercept Blocking Buffer) was added at 20 μL per well, and the plate was allowed to stand for 1 hour at room temperature. The supernatant was removed by centrifugation, and an ERK (Thr202/Tyr204) phosphorylation antibody (Phospho-p44/42 MAPK (Erk 1/2) (Thr202/Tyr204) (D13.14.4E) XP Rabbit mAb; from Cell Signaling Technology) diluted 2,500-fold with a blocking solution was added at 10 or 15 μL per well as a primary antibody. The plate was allowed to stand at 4° C. overnight.
The next day, the plate was centrifuged to remove the supernatant. 0.05% Tween-20-containing PBS was added at 50 μL per well, and the supernatant was removed by centrifugation to thus wash each well. The washing was performed three times in total. After washing, Goat anti-Rabbit IgG H&L (IRDye 800CW) diluted 1,000-fold with a blocking solution was added at […] as a secondary antibody, and the plate was allowed to stand for 1 hour at room temperature. The plate was centrifuged to remove the supernatant, and each well was washed three times with 0.05% Tween-20-containing PBS in the same manner as after the primary antibody reaction. After removing the supernatant by centrifuging the plate, the plate was dried as it was with air at room temperature for 3 hours or more, and the 800-nm fluorescent signals were measured with Aerius.
With the signaling value at the time of addition of DMSO taken as 100% and with the signaling value at the time of addition of 1 μM trametinib taken as 0%, the 50% inhibition values (IC50) were calculated by Sigmoid-Emax model nonlinear regression analysis. The molecular weights of the test compounds were calculated as the molecular weights of the dihydrochloride for Example No. 22, the trihydrochlorides for Example Nos. 2-7, 9-12, 14-18 and 30, the tetrahydrochlorides for Example Nos. 19 and 46, the pentahydrochloride for Example No. 21 and the free forms forming no salt for the remaining Example Nos. The results for some test compounds of the formula (I) are shown in Table 3.
On the technique in general: An ELISA detects its analyte on a solid surface through an enzyme-linked reagent.

Assay [2] concerns human G12D mutant KRAS-positive pancreatic cancer line AsPC-1. Kind of assay: Test Example 3: non-anchorage-dependent cell growth inhibition, spheroid 3D cell culture. The assay is classed as cell-based. Conditions: AsPC-1 spheroid 3D culture, 6 days, CellTiter Glo 2.0. The protocol:
Test Example 3: Evaluation of Non-Anchorage-Dependent Cell Growth Inhibition Action on Human G12D Mutant KRAS-Positive Pancreatic Cancer Line AsPC-1
The non-anchorage-dependent cell growth inhibition action of test compounds was evaluated by spheroid 3D cell culture.
AsPC-1 cells were seeded on a low-cell-adhesive round bottom 384-well plate (PrimeSurface: from Sumitomo Bakelite) at 36 μL/well to give 5×10^2 cells per well. The cell culture was performed under the same conditions as in the Test Example 2.
The next day, the test compounds (6 points having final concentrations in the range of 10 μM to 3.0 nM) and DMSO, which was the solvent for the test compounds, as a negative control were diluted 100-fold with a fresh medium and were added at 4 μL per well. After culturing in the presence of […] at 37° C. for 6 days, CellTiter Glo 2.0 (from Promega) was added at 20 μL per well. After stirring with a plate mixer (from FINEPCR) at normal temperature for 1 hour, the luminescent signals were measured with ARVO X3 (from PerkinElmer).
With the signaling value in treatment with DMSO taken as […] and with the signaling value in the medium alone without cells taken as […], the […] inhibition values (IC50) were calculated by Sigmoid-Emax model nonlinear regression analysis. The molecular weights of the test compounds were calculated as the molecular weights of the dihydrochloride for Example No. 22, the trihydrochlorides for Example Nos. 2-7, 9-12, 14-18 and 30, the tetrahydrochlorides for Example Nos. 19 and 46, the pentahydrochloride for Example No. 21 and the free forms forming no salt for the remaining Example Nos. The results for some test compounds of the formula (I) are shown in Table 4.

The mark [3] stands for this setting: Homo sapiens, ASPC1, 24 h, read-out: IC50.
Setting [4] is: Homo sapiens, ASPC1, 144 h, read-out: IC50.

Turning to `CCc1ccncc1Oc1nc(N2C[C@@H]3C[C@H]2CN3)c2cc(C3CC3)c(-c3c(C)c(F)cc4[nH]ncc34)c(OCc3ccc(-c4cn([C@H](C(=O)N5C[C@H](O)C[C@H]5C(=O)N[C@@H](CO)c5ccc(-c6scnc6C)cc5)C(C)C)nn4)cc3)c2n1` [Example 25], the concentration for half-maximal inhibition (IC50) in assay [1] (Homo sapiens, ASPC1, 24 h) is 15 nM; in assay [2] (Homo sapiens, ASPC1, 144 h), 66 nM.
For the molecule `Cc1ncsc1-c1ccc(CNC(=O)[C@@H]2C[C@@H](O)CN2C(=O)[C@H](C(C)C)n2cc(-c3ccc(COc4c(-c5c(C)c(F)cc6[nH]ncc56)c(C5CC5)cc5c(N6C[C@@H]7C[C@H]6CN7)nc(OC6CCOCC6)nc45)cc3)nn2)cc1` [Example 10], the concentration for half-maximal inhibition (IC50) was found to be 26 nM in assay [1] (Homo sapiens, ASPC1, 24 h) and 114 nM in assay [2] (Homo sapiens, ASPC1, 144 h).
In the same order, the values of `Cc1ncsc1-c1ccc([C@H](CO)NC(=O)[C@@H]2C[C@@H](O)CN2C(=O)[C@H](C(C)C)n2cc(-c3ccc(COc4c(-c5c(C)c(F)cc6[nH]ncc56)c(C5CC5)cc5c(N6C[C@@H]7C[C@H]6CN7)nc(OC6COC6)nc45)cc3)nn2)cc1` [Example 27] are 27 nM and 103 nM.
In the same order, the values of `Cc1c(F)cc2[nH]ncc2c1-c1c(C2CC2)cc2c(N3C[C@@H]4C[C@H]3CN4)nc(OC3CCOCC3)nc2c1OCc1ccc(-c2cn([C@H](C(=O)N3C[C@H](O)C[C@H]3C(=O)N[C@@H](CO)c3ccc(-c4ccnn4C)cc3)C(C)C)nn2)cc1` [Example 22] are 12 nM and 27 nM.
`CO[C@H](C)[C@@H](C)Oc1nc(N2C[C@@H]3C[C@H]2CN3)c2cc(C3CC3)c(-c3c(C)c(F)cc4[nH]ncc34)c(OCc3ccc(-c4cn([C@H](C(=O)N5C[C@H](O)C[C@H]5C(=O)N[C@@H](CO)c5ccc(-c6scnc6C)cc5)C(C)C)nn4)cc3)c2n1` [Example 39]: the IC50 in assay [1] (Homo sapiens, ASPC1, 24 h) is 6 nM; in assay [2] (Homo sapiens, ASPC1, 144 h), 18 nM.
For the molecule `Cc1ncsc1-c1ccc([C@H](CO)NC(=O)[C@@H]2C[C@@H](O)CN2C(=O)[C@H](C(C)C)n2cc(-c3ccc(COc4c(-c5c(C)c(F)cc6[nH]ncc56)c(C5CC5)cc5c(N6C[C@@H]7C[C@H]6CN7)nc(O[C@@H]6CCOC6)nc45)cc3)nn2)cc1` [Example 28], the IC50 worked out at 12 nM in assay [1] (Homo sapiens, ASPC1, 24 h) and 37 nM in assay [2] (Homo sapiens, ASPC1, 144 h).
In the same order, the values of `CCOc1nc(N2C[C@@H]3C[C@H]2CN3)c2cc(C3CC3)c(-c3c(C)c(F)cc4[nH]ncc34)c(OCc3ccc(C(=O)N[C@H](C(=O)N4C[C@H](O)C[C@H]4C(=O)N[C@@H](CO)c4ccc(-c5scnc5C)cc4)C(C)C)cc3)c2n1` [Example 5] are 97 nM and 169 nM.
In the case of `Cc1c(F)cc2[nH]ncc2c1-c1c(C2CC2)cc2c(N3C[C@@H]4C[C@H]3CN4)nc(OC3CCOCC3)nc2c1OCc1ccc(-c2cn([C@H](C(=O)N3C[C@H](O)C[C@H]3C(=O)N[C@@H](CO)c3cccc(S(C)(=O)=O)c3)C(C)C)nn2)cc1` [Example 67], the figures for the half-inhibitory concentration (IC50) in assay [1] (setting [3]) and in assay [2] (setting [4]) were 758 nM and 975 nM, respectively.
As for `Cc1ncsc1-c1ccc([C@H](CO)NC(=O)[C@@H]2C[C@@H](O)CN2C(=O)[C@H](C(C)C)n2cc(-c3ccc(COc4c(-c5c(C)c(F)cc6[nH]ncc56)c(C5CC5)cc5c(N6C[C@@H]7C[C@H]6CN7)nc(O[C@H]6CCN(CCO)C6)nc45)cc3)nn2)cc1` [Example 31], the IC50 in assay [1] (Homo sapiens, ASPC1, 24 h) turned out to be 194 nM; in assay [2] (Homo sapiens, ASPC1, 144 h), 321 nM.
With `Cc1ncsc1-c1ccc([C@H](CO)NC(=O)[C@@H]2C[C@@H](O)CN2C(=O)[C@H](C(C)C)n2cc(-c3ccc(COc4c(-c5c(C)c(F)cc6[nH]ncc56)c(C5CC5)cc5c(N6C[C@@H]7C[C@H]6CN7)nc(OC[C@@H]6CCOC6)nc45)cc3)nn2)cc1` [Example 50], the IC50 turned out to be 10 nM in assay [1] (Homo sapiens, ASPC1, 24 h) and 21 nM in assay [2] (Homo sapiens, ASPC1, 144 h).
Take `Cc1ncsc1-c1ccc([C@@H](CO)NC(=O)[C@@H]2C[C@@H](O)CN2C(=O)[C@H](C(C)C)n2cc(-c3ccc(COc4c(-c5c(C)c(F)cc6[nH]ncc56)c(C5CC5)cc5c(N6C[C@@H]7C[C@H]6CN7)nc(OC6CCOCC6)nc45)cc3)nn2)cc1` [Example 68]: the IC50 in assay [1] (setting [3]) stood at 2210 nM; in assay [2] (setting [4]) it was 1630 nM.
For `Cc1ncsc1-c1ccc([C@H](CO)NC(=O)[C@@H]2C[C@@H](O)CN2C(=O)[C@H](C(C)C)n2cc(-c3ccc(COc4c(-c5c(C)c(F)cc6[nH]ncc56)c(C5CC5)cc5c(N6C[C@@H]7C[C@H]6CN7)nc(OC[C@@H]6CCCN6C)nc45)cc3)nn2)cc1` [Example 57], the IC50 in assay [1] (setting [3]) stood at 65 nM; in assay [2] (setting [4]), 90 nM.
As for `Cc1c(F)cc2[nH]ncc2c1-c1c(C2CC2)cc2c(N3C[C@@H]4C[C@H]3CN4)nc(OC3CCOCC3)nc2c1OCc1ccc(-c2cn([C@H](C(=O)N3C[C@H](O)C[C@H]3C(=O)N[C@@H](CO)c3ccc(-c4ccnn4C)cc3)C(C)C)nn2)cc1` [Example 23], the values for the IC50 in assay [1] (24 hours) and in assay [2] were 10 nM and 21 nM, respectively.
As for `Cc1ncsc1-c1ccc([C@H](CN(C)C)NC(=O)[C@@H]2C[C@@H](O)CN2C(=O)[C@H](C(C)C)n2cc(-c3ccc(COc4c(-c5c(C)c(F)cc6[nH]ncc56)c(C5CC5)cc5c(N6C[C@@H]7C[C@H]6CN7)nc(OC6CCOCC6)nc45)cc3)nn2)cc1` [Example 19], the IC50 in assay [1] (setting [3]) was determined as 51 nM; in assay [2] (setting [4]), 138 nM.
For `Cc1c(F)cc2[nH]ncc2c1-c1c(C2CC2)cc2c(N3C[C@@H]4C[C@H]3CN4)nc(OC3CCOCC3)nc2c1OCc1ccc(-c2cn([C@H](C(=O)N3C[C@H](O)C[C@H]3C(=O)N[C@@H](CO)c3ccc(N4CCOC4=O)cc3)C(C)C)nn2)cc1` [Example 20, (4R)-1-[(2S)-2-(4-{4-[({6-cyclopropyl-4-[(1S,4S)-2,5-diazabicyclo[2.2.1]heptan-2-yl]-7-(6-fluoro-5-methyl-1H-indazol-4-yl)-2-[(oxan-4-yl)oxy]quinazolin-8-yl}oxy)methyl]phenyl}-1H-1,2,3-triazol-1-yl)-3-methylbutanoyl]-4-hydroxy-N-{(1R)-2-hydroxy-1-[4-(2-oxo-1,3-oxazolidin-3-yl)phenyl]ethyl}-L-prolinamide], the IC50 was determined as 36 nM in assay [1] (setting [3]) and 79 nM in assay [2] (setting [4]).

For orientation: IC50 means the concentration at which inhibition is half-maximal.
